Measurements published in patent US20090053306A1, “Pharmaceutical Compositions of a 5-HT2A Serotonin Receptor Modulator Useful for the Treatment of Disorders Related Thereto” (priority 2005, published 2009).
Converted amounts (≈) assume the structure as drawn. Like-named read-outs stand apart in the source and are kept apart here. Blank lines part the entries; values can stand above or below the molecule they belong to.

Experiments:
[1] = Solubility determination in selected excipients (HPLC); type: physicochemical; conditions: thermodynamic from solid
Description: The vial contents were mixed for 30 seconds using a VWR mini vortexter followed by sonication (Branson 1510) for 1 minutes. Vials were placed into a constant temperature bath (i.e., about 25° C.) and allowed to equilibrate for no less than 12 hours. The resulting suspensions were transferred to eppendorf tubes each equipped with a 0.2 μm nylon filter (Costar 8168) and were centrifuged for 10 minutes at 14,000 rpms. The supernatant from each eppendorf tube was collected and diluted with HPLC grade acetonitrile or methonal with appropriate dilution factor. Each solution was analyzed by an HPLC method.
As an example, the following HPLC assay was used to determine the aqueous solubility of 1-[3-(4-bromo-2-methyl-2H-pyrazol-3-yl)-4-methoxy-phenyl]-3-(2,4-difluoro-phenyl)-urea:
HPLC System: Waters 2795; Stationary phase: Xterra® column, MS C18, 3.5 μm, 4.6×50 mm; Mobile phase: Line A: 100% De-ionized-Millipore water; Line B: 1.0% NH4OH; Line C: 100% HPLC grade Acetonitrile; Gradient: A: 80% to 0% in 8 minute; B: 10% constant in 8 minute; C: 10% to 90% in 8 minute; Flow rate: 1.50 mL/min; Column temperature: 40° C.±5° C.; Sample temperature: 25° C.±5° C.
Photodiode Array Detector: Waters 2996 with UV lamp: 3D data collection; Start wavelength: 210 nm; end wavelength: 320 nm.
Processing wavelength: 220 nm.
Quantification was effected by comparison of the HPLC peak area for each test solution with the peak area taken from a standard plot of concentration versus peak area for standards of known concentration. As is conventional, the standard concentrations for 1-[3-(4-bromo-2-methyl-2H-pyrazol-3-yl)-4-methoxy-phenyl]-3-(2,4-difluoro-phenyl)-urea were selected to fall within a linear range of concentration versus absorbance for the UV detector employed. The standard concentration for 1-[3-(4-bromo-2-methyl-2H-pyrazol-3-yl)-4-methoxy-phenyl]-3-(2,4-difluoro-phenyl)-urea was diluted in serial fashion to obtain a calibration curve. Dilution was effected by adding the acetonitrile from mobile phase. Each saturated equilibrium solution for 1-[3-(4-bromo-2-methyl-2H-pyrazol-3-yl)-4-methoxy-phenyl]-3-(2,4-difluoro-phenyl)-urea obtained after filtering the test vial solutions was diluted with acetonitrile or methonal with appropriate dilution factor to reach the linear range of the standard plot.

[2] = Plasma pharmacokinetics in healthy male and female volunteers following oral administration of a capsule formulated dose; type: in vivo; conditions: both sexes, human, capsule with Cremephor RH40
Description: Plasma pharmacokinetics for 1-[3-(4-bromo-2-methyl-2H-pyrazol-3-yl)-4-methoxy-phenyl]-3-(2,4-difluoro-phenyl)-urea were determined in healthy male and female volunteers following oral administration of a capsule formulated dose of 1-[3-(4-bromo-2-methyl-2H-pyrazol-3-yl)-4-methoxy-phenyl]-3-(2,4-difluoro-phenyl)-urea and Cremephor RH40.

[3] = target: 5-HT2A serotonin receptor (Homo sapiens, UniProt P28223); conditions: cited from earlier work
5-HT2A serotonin receptor, sequence (P28223 whole entry): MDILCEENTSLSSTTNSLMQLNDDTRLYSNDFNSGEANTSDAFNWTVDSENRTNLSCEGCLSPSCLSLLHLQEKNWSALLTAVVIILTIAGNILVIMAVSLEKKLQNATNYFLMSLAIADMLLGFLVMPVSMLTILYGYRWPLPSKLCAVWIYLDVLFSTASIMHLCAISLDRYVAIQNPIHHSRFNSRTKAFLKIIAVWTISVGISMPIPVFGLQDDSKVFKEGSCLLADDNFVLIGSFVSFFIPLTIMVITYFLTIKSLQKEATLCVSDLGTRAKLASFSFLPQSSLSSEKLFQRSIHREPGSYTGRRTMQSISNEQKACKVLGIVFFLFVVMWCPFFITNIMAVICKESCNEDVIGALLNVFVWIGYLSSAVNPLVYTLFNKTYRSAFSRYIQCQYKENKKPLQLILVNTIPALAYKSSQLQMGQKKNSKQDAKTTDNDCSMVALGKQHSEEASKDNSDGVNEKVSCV

diabetic rats = conditions: cited from earlier work
JC virus = conditions: cited from earlier work
5-HT2A = 5-HT2A (Homo sapiens, UniProt P28223); conditions: cited from earlier work
5-HT2A, sequence (P28223 whole entry): as above

[4] = patients, 24 months of treatment; cited from earlier work
[5] = glaucoma patients; cited from earlier work

solubility ([1]; 0.01 N HCl, 25 °C, pH 2, simulated gastric fluid, 0.01 N HCl (about pH 2), read-out: aqueous solubility): ≤ 0.01 mg/mL | solubility ([1]; 0.01 N HCl, 25 °C, pH 2, simulated gastric fluid, at 25° C. in 0.01 N HCl (pH 2), read-out: Solubility): < 0.01 mg/mL | solubility ([1]; 25 mM phosphate buffer, 25 °C, pH 7, aqueous buffer, at 25° C. in 25 mM Phosphate buffer (pH 7), read-out: Solubility): < 0.01 mg/mL | solubility ([1]; 0.05% Tween 80 & 0.5% Methocel, 25 °C, aqueous with cosolvent or surfactant or cyclodextrin, at 25° C. in 0.05% Tween 80 & 0.5% Methocel, read-out: Solubility): < 0.01 mg/mL | solubility ([1]; 1% Tween 80, 25 °C, aqueous with cosolvent or surfactant or cyclodextrin, at 25° C. in 1% Tween 80, read-out: Solubility): 0.4 mg/mL (≈ 0.915 mM) | solubility ([1]; 5% Gum Arabic, 25 °C, aqueous with cosolvent or surfactant or cyclodextrin, at 25° C. in 5% Gum Arabic, read-out: Solubility): < 0.01 mg/mL | solubility ([1]; 50% Captisol, 25 °C, aqueous with cosolvent or surfactant or cyclodextrin, at 25° C. in 50% Captisol, read-out: Solubility): 0.4 mg/mL (≈ 0.915 mM) | solubility ([1]; Cremophor RH 40, 25 °C, organic solvent or mixture, at 25° C. in Cremophor RH 40, read-out: Solubility): 196 mg/mL (≈ 448 mM) | solubility ([1]; Labrafil M 1944 CS, 25 °C, oil or lipid, at 25° C. in Labrafil M 1944 CS, read-out: Solubility): 29.9 mg/mL (≈ 68.4 mM) | solubility ([1]; Labrafil M 2125 CS, 25 °C, oil or lipid, at 25° C. in Labrafil M 2125 CS, read-out: Solubility): 32.7 mg/mL (≈ 74.8 mM) | solubility ([1]; Labrasol, 25 °C, oil or lipid, at 25° C. in Labrasol, read-out: Solubility): 348 mg/mL (≈ 796 mM) | solubility ([1]; PEG 300, 25 °C, organic solvent or mixture, at 25° C. in PEG 300, no suspension observed, read-out: Solubility): > 150 mg/mL | solubility ([1]; PEG 400, 25 °C, organic solvent or mixture, at 25° C. in PEG 400, read-out: Solubility): 377 mg/mL (≈ 861 mM) | solubility ([1]; PEG 600, 25 °C, organic solvent or mixture, at 25° C. in PEG 600, no suspension observed, read-out: Solubility): > 325 mg/mL | solubility ([1]; Softigen 767, 25 °C, oil or lipid, at 25° C. in Softigen 767, no suspension observed, read-out: Solubility): > 200 mg/mL | solubility ([1]; Transcutol P, 25 °C, organic solvent or mixture, at 25° C. in Transcutol P, no suspension observed, read-out: Solubility): > 200 mg/mL | solubility ([1]; Tween 20, 25 °C, organic solvent or mixture, at 25° C. in Tween 20, no suspension observed, read-out: Solubility): > 160 mg/mL | solubility ([1]; Tween 80, 25 °C, organic solvent or mixture, at 25° C. in Tween 80, read-out: Solubility): 320 mg/mL (≈ 732 mM) | solubility ([1]; deionized water, 25 °C, water, at 25° C. in Deionized water, read-out: Solubility): < 0.01 mg/mL | solubility ([1]; deionized water, 25 °C, water, deionized water, read-out: aqueous solubility): ≤ 0.01 mg/mL | solubility ([1]; phosphate buffer, 25 °C, pH 7, aqueous buffer, phosphate buffer (about pH 7), read-out: aqueous solubility): ≤ 0.01 mg/mL | solubility ([1]; saline (0.9% NaCl solution), 25 °C, saline or isotonic, at 25° C. in Saline (0.9% NaCl solution), read-out: Solubility): < 0.01 mg/mL | solubility ([1]; saline (about 0.9% NaCl solution), 25 °C, saline or isotonic, saline (about 0.9% NaCl solution), read-out: aqueous solubility): ≤ 0.01 mg/mL | AUC(0-inf) ([2]; single oral dose 10 mg): 51 ng·h/mL | Cmax ([2]; single oral dose 10 mg): 18 ng/mL | Tmax ([2]; single oral dose 10 mg): 1.2 h | AUC(0-inf) ([2]; single oral dose 20 mg): 181 ng·h/mL | Cmax ([2]; single oral dose 20 mg): 58 ng/mL | Tmax ([2]; single oral dose 20 mg): 1.2 h | AUC(0-inf) ([2]; single oral dose 40 mg): 395 ng·h/mL | Cmax ([2]; single oral dose 40 mg): 113 ng/mL | Tmax ([2]; single oral dose 40 mg): 1.5 h | AUC(0-inf) ([2]; single oral dose 80 mg): 612 ng·h/mL | Cmax ([2]; single oral dose 80 mg): 118 ng/mL | Tmax ([2]; single oral dose 80 mg): 1.2 h | AUC(0-inf) ([2]; single oral dose 160 mg): 739 ng·h/mL | Cmax ([2]; single oral dose 160 mg): 125 ng/mL | Tmax ([2]; single oral dose 160 mg): 1.5 h
SMILES: COc1ccc(NC(=O)Nc2ccc(F)cc2F)cc1-c1c(Br)cnn1C [1-[3-(4-bromo-2-methyl-2H-pyrazol-3-yl)-4-methoxy-phenyl]-3-(2,4-difluoro-phenyl)-urea]
effectiveness as a modulator of the 5-HT2A serotonin receptor [3]: especially effective as a modulator of the 5-HT2A serotonin receptor

SMILES: O=CN1CCC(C(=O)NCCN2CCC(=C3c4ccccc4C=Cc4ccccc43)CC2)CC1 [AT-1015]
14.9% reduction in saphenous sensory conduction velocity (diabetic rats): completely reversed | 44.7% reduction in sciatic endoneurial blood flow (diabetic rats): completely reversed

SMILES: O=C(c1ccc(F)cc1)C1CCN(CCn2c(=O)[nH]c3ccccc3c2=O)CC1 [ketanserin]
JC virus infection of human glial cells (JC virus): inhibited JC virus infection | inverse agonist activity at 5-HT2A (5-HT2A): have inverse agonist activity

SMILES: Cc1nc2sccn2c(=O)c1CCN1CCC(=C(c2ccc(F)cc2)c2ccc(F)cc2)CC1 [ritanserin]
14.9% reduction in saphenous sensory conduction velocity (diabetic rats): completely reversed | 44.7% reduction in sciatic endoneurial blood flow (diabetic rats): completely reversed | JC virus infection of human glial cells (JC virus): inhibited JC virus infection | inverse agonist activity at 5-HT2A (5-HT2A): have inverse agonist activity

SMILES: COc1cccc(CCc2ccccc2OCC(CN(C)C)OC(=O)CCC(=O)O)c1 (stereo not drawn) [sarpogrelate]
14.9% reduction in saphenous sensory conduction velocity (diabetic rats): completely reversed | 44.7% reduction in sciatic endoneurial blood flow (diabetic rats): completely reversed | urinary albumin excretion level [4]: significantly reduced | IOP [5]: significantly lower IOP
